Values of other authors, collected in paper PMC8253220, “Molecular design, synthesis and in vitro biological evaluation of thienopyrimidine–hydroxamic acids as chimeric kinase HDAC inhibitors: a challenging approach to combat cancer” (Journal of Enzyme Inhibition and Medicinal Chemistry, 2021).
Where two headings read alike, the source gives them in different places.

What was measured:
[1] = molecular target: EGFR (Homo sapiens, UniProt P00533); details: cited from earlier work
[2] = tested on: VEGFR2; details: read-out: VEGFR2 IC50, cited from earlier work
[3] = tested on: HER2; details: Figure 2; cited from earlier work
[4] = tested on: HDAC; details: Figure 2; cited from earlier work
[5] = molecular target: T1, HDAC6 (Homo sapiens, UniProt Q9UBN7); details: Figure 2; cited from earlier work
T1 construct: purchased BPS Bioscience 50006
T1 sequence (Q9UBN7 1-1215): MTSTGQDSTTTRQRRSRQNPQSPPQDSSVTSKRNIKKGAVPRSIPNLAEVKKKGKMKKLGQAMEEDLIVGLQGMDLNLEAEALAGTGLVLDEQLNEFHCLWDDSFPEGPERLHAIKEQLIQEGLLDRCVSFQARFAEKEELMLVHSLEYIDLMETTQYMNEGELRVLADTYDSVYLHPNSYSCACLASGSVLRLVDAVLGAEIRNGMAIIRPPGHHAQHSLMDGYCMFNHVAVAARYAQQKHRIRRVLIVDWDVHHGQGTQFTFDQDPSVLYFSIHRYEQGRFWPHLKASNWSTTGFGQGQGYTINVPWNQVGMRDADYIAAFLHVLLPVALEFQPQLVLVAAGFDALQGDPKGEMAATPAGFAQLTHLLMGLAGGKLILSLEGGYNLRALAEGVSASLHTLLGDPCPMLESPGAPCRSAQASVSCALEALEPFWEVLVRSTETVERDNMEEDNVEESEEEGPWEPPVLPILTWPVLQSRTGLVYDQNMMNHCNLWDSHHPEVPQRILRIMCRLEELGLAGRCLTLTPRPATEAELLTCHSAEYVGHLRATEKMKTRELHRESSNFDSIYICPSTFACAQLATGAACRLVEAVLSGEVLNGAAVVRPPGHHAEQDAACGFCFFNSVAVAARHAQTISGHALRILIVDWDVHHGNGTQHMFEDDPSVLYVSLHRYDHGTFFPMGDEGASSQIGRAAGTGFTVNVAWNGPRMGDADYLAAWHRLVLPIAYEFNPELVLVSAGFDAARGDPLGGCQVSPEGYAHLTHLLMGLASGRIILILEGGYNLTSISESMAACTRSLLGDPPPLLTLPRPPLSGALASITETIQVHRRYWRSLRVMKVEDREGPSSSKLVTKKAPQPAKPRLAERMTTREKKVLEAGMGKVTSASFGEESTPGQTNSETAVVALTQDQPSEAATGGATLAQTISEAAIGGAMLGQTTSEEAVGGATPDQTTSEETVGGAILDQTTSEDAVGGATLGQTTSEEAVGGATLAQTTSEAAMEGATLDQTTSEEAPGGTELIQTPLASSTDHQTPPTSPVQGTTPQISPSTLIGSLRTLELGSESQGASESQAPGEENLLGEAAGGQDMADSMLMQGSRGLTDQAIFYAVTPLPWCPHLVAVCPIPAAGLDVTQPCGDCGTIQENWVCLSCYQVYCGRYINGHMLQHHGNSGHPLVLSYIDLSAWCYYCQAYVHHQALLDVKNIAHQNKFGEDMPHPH

Chain of EGFR (P00533 25-1210): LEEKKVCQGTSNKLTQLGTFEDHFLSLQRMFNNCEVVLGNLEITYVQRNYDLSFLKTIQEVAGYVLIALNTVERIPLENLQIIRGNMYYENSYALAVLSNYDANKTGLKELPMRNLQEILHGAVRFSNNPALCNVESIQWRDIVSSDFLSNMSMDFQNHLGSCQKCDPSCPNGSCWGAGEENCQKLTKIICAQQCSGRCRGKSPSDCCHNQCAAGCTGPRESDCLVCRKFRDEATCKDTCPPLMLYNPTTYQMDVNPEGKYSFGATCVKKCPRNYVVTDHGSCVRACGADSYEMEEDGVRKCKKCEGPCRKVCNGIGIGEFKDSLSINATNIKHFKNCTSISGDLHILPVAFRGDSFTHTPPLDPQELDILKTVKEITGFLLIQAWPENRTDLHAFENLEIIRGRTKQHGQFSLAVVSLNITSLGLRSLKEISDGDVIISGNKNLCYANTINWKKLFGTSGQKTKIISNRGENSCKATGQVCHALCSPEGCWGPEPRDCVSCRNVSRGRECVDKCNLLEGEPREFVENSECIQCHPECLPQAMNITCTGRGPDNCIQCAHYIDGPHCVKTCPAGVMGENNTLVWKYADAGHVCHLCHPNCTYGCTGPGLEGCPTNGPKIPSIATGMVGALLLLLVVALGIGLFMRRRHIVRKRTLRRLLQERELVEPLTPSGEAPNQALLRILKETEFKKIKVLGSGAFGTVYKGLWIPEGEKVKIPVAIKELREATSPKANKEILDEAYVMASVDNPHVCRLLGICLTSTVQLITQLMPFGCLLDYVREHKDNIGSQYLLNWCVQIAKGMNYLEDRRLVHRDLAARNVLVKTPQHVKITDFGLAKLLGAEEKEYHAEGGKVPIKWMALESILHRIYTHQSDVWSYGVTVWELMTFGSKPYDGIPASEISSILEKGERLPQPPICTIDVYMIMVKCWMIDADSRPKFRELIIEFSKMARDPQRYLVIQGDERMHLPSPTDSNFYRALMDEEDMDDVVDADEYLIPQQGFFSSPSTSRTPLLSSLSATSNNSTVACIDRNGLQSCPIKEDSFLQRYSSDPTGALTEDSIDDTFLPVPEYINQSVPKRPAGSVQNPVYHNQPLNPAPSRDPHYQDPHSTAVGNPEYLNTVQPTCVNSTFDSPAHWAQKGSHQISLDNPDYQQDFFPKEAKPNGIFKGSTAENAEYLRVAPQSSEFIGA

## O=C(Nc1cccc(Br)c1)Nc1ccc(Oc2ncnc3sc4c(c23)CCCCC4)cc1Cl [Compound E]
[1]; Figure 3
  IC50: 1260 nM
[2]; Figure 3
  IC50: 15 nM

## Clc1ccc(Oc2ncnc3sc4c(c23)CCCCC4)cc1 [Compound D]
[2]; Figure 3
  IC50: 340 nM

## C#Cc1cccc(Nc2ncnc3cc(OC)c(OCCCCCCC(=O)NO)cc23)c1 [CUDC-101, 7-(4-(3-ethynylphenylamino)-7-methoxyquinazolin-6-yloxy)-N-hydroxyheptanamide]
[3]
  IC50: 15 nM

## COc1cc2ncnc(Nc3ccc(Br)cc3)c2cc1OCCCCCCC(=O)NO [compound B]
[4]
  IC50: 2.2 nM
[2]; Figure 2
  IC50: 74 nM

## O=C(CCCCCCn1cc(-c2ccc3ncnc(Nc4ccc(Br)cc4F)c3c2)nn1)NO [compound C]
[1]; Figure 2
  IC50: 4.4 nM
[4]
  IC50: 3.2 nM
[5]
  IC50: 6 nM
